{"source": "ChEMBL document CHEMBL5352429", "about": "“Designed symmetrical β-hairpin peptides for treating multidrug-resistant salmonella typhimurium infections” (Eur J Med Chem, 2022)", "key": {"Staphylococcus aureus [1]": {"test_system": "Staphylococcus aureus", "assay": "Antibacterial activity against Staphylococcus aureus ATCC 29213 incubated overnight by standard microtiter dilution method", "assay_type": "functional"}, "Staphylococcus aureus [2]": {"test_system": "Staphylococcus aureus", "assay": "Antibacterial activity against methicillin-resistant Staphylococcus aureus ATCC 43300 incubated overnight by standard microtiter dilution method", "assay_type": "functional"}, "[3]": {"test_system": "Staphylococcus epidermidis", "assay": "Antibacterial activity against methicillin-resistant Staphylococcus epidermidis ATCC 12228 incubated overnight by standard microtiter dilution method", "assay_type": "functional"}, "Enterococcus faecalis": {"test_system": "Enterococcus faecalis", "assay": "Antibacterial activity against Enterococcus faecalis ATCC 29212 incubated overnight by standard microtiter dilution method", "assay_type": "functional"}, "Escherichia coli": {"test_system": "Escherichia coli", "assay": "Antibacterial activity against Escherichia coli O157:H7 CICC 21530 incubated overnight by standard microtiter dilution method", "assay_type": "functional"}, "Salmonella paratyphi": {"test_system": "Salmonella paratyphi", "assay": "Antibacterial activity against Salmonella paratyphi A CICC 21501 incubated overnight by standard microtiter dilution method", "assay_type": "functional", "settings": "Salmonella enterica subsp. enterica serovar Paratyphi A"}, "[4]": {"test_system": "Salmonella enterica subsp. enterica serovar Paratyphi B", "assay": "Antibacterial activity against Salmonella paratyphi B CICC 21495 incubated overnight by standard microtiter dilution method", "assay_type": "functional"}, "[5]": {"test_system": "Salmonella enterica subsp. enterica serovar Paratyphi C", "assay": "Antibacterial activity against Salmonella paratyphi C CICC 21512 incubated overnight by standard microtiter dilution method", "assay_type": "functional"}, "[6]": {"test_system": "Salmonella enterica subsp. enterica serovar Choleraesuis", "assay": "Antibacterial activity against Salmonella enterica subsp. enterica serovar Choleraesuis ATCC 13312 incubated overnight by standard microtiter dilution method", "assay_type": "functional"}, "[7]": {"test_system": "Salmonella enterica subsp. enterica serovar Choleraesuis", "assay": "Antibacterial activity against Salmonella enterica subsp. enterica serovar Choleraesuis CICC 21493 incubated overnight by standard microtiter dilution method", "assay_type": "functional"}, "Salmonella enteritidis": {"test_system": "Salmonella enteritidis", "assay": "Antibacterial activity against Salmonella enteritidis CICC 21527 incubated overnight by standard microtiter dilution method", "assay_type": "functional", "settings": "Salmonella enterica subsp. enterica serovar Enteritidis"}, "[8]": {"test_system": "Salmonella enterica subsp. enterica serovar Wandsworth", "assay": "Antibacterial activity against Salmonella wandsworth CICC 21504 incubated overnight by standard microtiter dilution method", "assay_type": "functional"}, "Salmonella typhimurium [9]": {"test_system": "Salmonella typhimurium", "assay": "Antibacterial activity against Salmonella typhimurium CICC 21483 incubated overnight by standard microtiter dilution method", "assay_type": "functional", "settings": "Salmonella enterica subsp. enterica serovar Typhimurium"}, "Salmonella typhimurium [10]": {"test_system": "Salmonella typhimurium", "assay": "Antibacterial activity against Salmonella typhimurium CICC 21913 incubated overnight by standard microtiter dilution method", "assay_type": "functional", "settings": "Salmonella enterica subsp. enterica serovar Typhimurium"}, "[11]": {"test_system": "Salmonella enterica subsp. enterica serovar Blockley", "assay": "Antibacterial activity against Salmonella blockley CICC 21489 incubated overnight by standard microtiter dilution method", "assay_type": "functional"}, "[12]": {"test_system": "Salmonella enterica subsp. enterica serovar Dublin", "assay": "Antibacterial activity against Salmonella dublin CICC 21497 incubated overnight by standard microtiter dilution method", "assay_type": "functional"}, "Salmonella typhimurium [13]": {"test_system": "Salmonella typhimurium", "assay": "Antibacterial activity against Salmonella typhimurium DT104 ATCC 700408 incubated overnight by standard microtiter dilution method", "assay_type": "functional", "settings": "Salmonella enterica subsp. enterica serovar Typhimurium"}, "Candida albicans": {"test_system": "Candida albicans", "assay": "Antifungal activity against Candida albicans ATCC 10231 incubated overnight by standard microtiter dilution method", "assay_type": "functional"}, "Lipopolysaccharide (LPS)": {"test_system": "Lipopolysaccharide (LPS)", "assay": "Displacement of BODIPY-TR-cadaverine from Salmonella typhimurium LPS assessed as increase in fluorescence intensity by fluorescence spectrophotometric analysis", "settings": "Salmonella enterica subsp. enterica serovar Typhimurium; dose 0.25-8 µg/ml"}, "Salmonella typhimurium [14]": {"test_system": "Salmonella typhimurium", "assay": "Antibacterial activity against multi-drug resistant Salmonella typhimurium DT104 infected in ICR mouse model assessed as fecal shedding of bacteria at 2 mg/kg, ip administered for 3 days and measured on day 7", "assay_type": "functional, organism-based", "settings": "Salmonella enterica subsp. enterica serovar Typhimurium, time 7.0 day"}, "Salmonella typhimurium [15]": {"test_system": "Salmonella typhimurium", "assay": "Antibacterial activity against multi-drug resistant Salmonella typhimurium DT104 infected in ICR mouse model assessed as reversal of mouse vigour loss at 2 mg/kg, ip administered for 3 days and measured on day 7", "assay_type": "functional, organism-based", "settings": "Salmonella enterica subsp. enterica serovar Typhimurium, time 7.0 day"}, "Salmonella typhimurium [16]": {"test_system": "Salmonella typhimurium", "assay": "Antibacterial activity against multi-drug resistant Salmonella typhimurium DT104 infected in ICR mouse model assessed as reversal of mouse vitality loss at 2 mg/kg, ip administered for 3 days and measured on day 7", "assay_type": "functional, organism-based", "settings": "Salmonella enterica subsp. enterica serovar Typhimurium, time 7.0 day"}, "Salmonella typhimurium [17]": {"test_system": "Salmonella typhimurium", "assay": "Antibacterial activity against multi-drug resistant Salmonella typhimurium DT104 infected in ICR mouse model assessed as reversal of body weight loss at 2 mg/kg, ip administered for 3 days and measured on day 7", "assay_type": "functional, organism-based", "settings": "Salmonella enterica subsp. enterica serovar Typhimurium, time 7.0 day"}, "Erythrocyte": {"test_system": "Erythrocyte", "assay": "Hemolytic activity in human Red blood cells assessed as hemolysis incubated for 1 hrs by absorbance based microplate reader analysis", "assay_type": "toxicity, cell-based"}, "RAW264.7": {"test_system": "RAW264.7", "assay": "Cytotoxicity against mouse RAW264.7 cells infected with Salmonella typhimurium DT104 assessed as cell viability at 1 times of MIC measured at 180 min by MTT assay", "assay_type": "toxicity, cell-based", "settings": "raw264.7, 3 h"}}, "note": "Calls of active or inactive are those of the source. No cut-off for these calls is given here."}
{"sequence": "POLYMYXIN B [listing 1 of 2 here]", "values": [{"measurement": "MIC", "setting": "Staphylococcus aureus [1]", "result": 64, "unit": "µg/mL"}, {"measurement": "MIC", "setting": "Staphylococcus aureus [2]", "result": "> 128", "unit": "µg/mL"}, {"measurement": "MIC", "setting": "[3]", "result": 4, "unit": "µg/mL"}, {"measurement": "MIC", "setting": "Enterococcus faecalis", "result": 128, "unit": "µg/mL"}, {"measurement": "MIC", "setting": "Escherichia coli", "result": 32, "unit": "µg/mL"}, {"measurement": "MIC", "setting": "Salmonella paratyphi", "result": 4, "unit": "µg/mL"}, {"measurement": "MIC", "setting": "[4]", "result": 2, "unit": "µg/mL"}, {"measurement": "MIC", "setting": "[5]", "result": 2, "unit": "µg/mL"}, {"measurement": "MIC", "setting": "[6]", "result": 1, "unit": "µg/mL"}, {"measurement": "MIC", "setting": "[7]", "result": 4, "unit": "µg/mL"}, {"measurement": "MIC", "setting": "Salmonella enteritidis", "result": 2, "unit": "µg/mL"}, {"measurement": "MIC", "setting": "[8]", "result": 1, "unit": "µg/mL"}, {"measurement": "MIC", "setting": "Salmonella typhimurium [9]", "result": 2, "unit": "µg/mL"}, {"measurement": "MIC", "setting": "Salmonella typhimurium [10]", "result": 2, "unit": "µg/mL"}, {"measurement": "MIC", "setting": "[11]", "result": 1, "unit": "µg/mL"}, {"measurement": "MIC", "setting": "[12]", "result": 2, "unit": "µg/mL"}, {"measurement": "MIC", "setting": "Salmonella typhimurium [13]", "result": 4, "unit": "µg/mL"}, {"measurement": "MIC", "setting": "Candida albicans", "result": 64, "unit": "µg/mL"}, {"measurement": "Activity", "setting": "Lipopolysaccharide (LPS)", "result": "Dose-Dependent Effect"}, {"measurement": "Activity", "setting": "Salmonella typhimurium [14]", "result": "inactive"}, {"measurement": "Activity", "setting": "Salmonella typhimurium [15]", "result": "inactive"}, {"measurement": "Activity", "setting": "Salmonella typhimurium [16]", "result": "inactive"}, {"measurement": "Activity", "setting": "Salmonella typhimurium [17]", "result": "inactive"}]}
{"sequence": "POLYMYXIN B [listing 2 of 2 here]", "values": [{"measurement": "MHC", "setting": "Erythrocyte", "result": "> 128", "unit": "µg/mL"}, {"measurement": "Activity", "setting": "RAW264.7", "result": "> 90", "unit": "%"}]}
